Our source for the inhibition and IC50 values is patent publication US7109193B2, “Tricyclic diazepines tocolytic oxytocin receptor antagonists” (Wyeth, priority 2001, dated 2006).

Where a name gives a salt, the structure may show the parent alone.

As a reminder, the inhibition is the drop in the measured response relative to a control, in per cent. By IC50 is commonly meant the concentration that gives 50% inhibition.

T1 sequence (P30518 whole entry): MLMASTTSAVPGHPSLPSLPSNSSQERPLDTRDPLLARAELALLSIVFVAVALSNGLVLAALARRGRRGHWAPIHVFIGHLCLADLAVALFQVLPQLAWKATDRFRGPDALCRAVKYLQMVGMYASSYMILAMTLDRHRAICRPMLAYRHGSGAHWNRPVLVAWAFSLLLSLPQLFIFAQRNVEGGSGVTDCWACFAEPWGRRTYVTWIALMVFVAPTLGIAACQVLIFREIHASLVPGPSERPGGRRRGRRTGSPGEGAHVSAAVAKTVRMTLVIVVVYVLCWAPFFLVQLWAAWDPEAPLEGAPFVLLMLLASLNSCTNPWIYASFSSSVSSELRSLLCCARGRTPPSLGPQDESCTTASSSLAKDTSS

The first assay has as its target T1, human vasopressin V2 receptor subtype (Homo sapiens, UniProt P30518).
T1 construct: host or cells: CHO cells (pZeoSV vector)
Briefly: Vasopressin binding in Chinese Hamster Ovary cell membranes expressing human vasopressin V2 subtype receptors. The settings on record: 100 nM, CHO cell membranes, [3H]arginine vasopressin, values without parentheses. An outline of the steps:
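Radioligand displacement on membranes from CHO cells stably expressing human V2 receptor, 25 to 50 μg protein/well, in 50 mM Tris-HCl pH 7.4 with MgCl2, BSA and protease inhibitors. [^3H]arginine vasopressin (8 nM working solution) incubated 60 min at room temperature; bound label measured by filtration and scintillation counting.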
Turning to `CN(C)CCCNC(=O)c1ccc2n1Cc1ccccc1N(C(=O)c1ccc(-c3cccc4ccccc34)cc1Cl)C2` [Example 83, 10-[2-Chloro-4-(1-naphthyl)benzoyl]-N-[3-(dimethylamino)propyl]-10,11-dihydro-5H-pyrrolo[2,1-c][1,4]benzodiazepine-3-carboxamide], the inhibition at 0.1 µM came to 18%.
For the compound `COc1cc(C(=O)N2Cc3ccc(C(=O)N(C)CCN(C)C)n3Cc3ccccc32)ccc1-c1ccccc1C` [Example 92, N-[2-(Dimethylamino)ethyl]-10-[(2-methoxy-2′-methyl[1,1′-biphenyl]-4-yl)carbonyl]-N-methyl-10,11-dihydro-5H-pyrrolo[2,1-c][1,4]benzodiazepine-3-carboxamide], the inhibition at 0.1 µM was 20%.
In the case of `CN(C)CCN(C)C(=O)c1ccc2n1Cc1ccccc1N(C(=O)c1ccc(-c3cccc4ccccc34)cc1Cl)C2` [Example 96, 10-[2-Chloro-4-(1-naphthyl)benzoyl]-N-[2-(dimethylamino)ethyl]-N-methyl-10,11-dihydro-5H-pyrrolo[2,1-c][1,4]benzodiazepine-3-carboxamide], the inhibition at 0.1 µM was 24%.
On the same count and under the same terms, next, `Cc1cc(C(=O)N2Cc3ccc(C(=O)N4CCN(CCCN(C)C)CC4)n3Cc3ccccc32)ccc1-c1ccccc1C(F)(F)F` [Example 4, [4-(3-Dimethylaminopropyl)-piperazin-1-yl]-[10-(2-methyl-2′-trifluoromethyl-[1,1′-biphenyl]-4-yl)carbonyl]-[10,11-dihydro-5H-pyrrolo[2,1-c][1,4]benzodiazepin-3-yl]-methanone]: 24%.
With `COc1cc(C(=O)N2Cc3ccc(C(=O)N(C)CCN(C)C)n3Cc3ccccc32)ccc1-c1cccc2ccccc12` [Example 93, N-[2-(Dimethylamino)ethyl]-10-[3-methoxy-4-(1-naphthyl)benzoyl]-N-methyl-10,11-dihydro-5H-pyrrolo[2,1-c][1,4]benzodiazepine-3-carboxamide], the inhibition at 0.1 µM came out at 36%.
`COc1ccccc1-c1ccc(C(=O)N2Cc3ccc(C(=O)N(C)CCN(C)C)n3Cc3ccccc32)cc1C` [Example 88, N-[2-(Dimethylamino)ethyl]-10-[(2′-methoxy-2-methyl[1,1′-biphenyl]-4-yl)carbonyl]-N-methyl-10,11-dihydro-5H-pyrrolo[2,1-c][1,4]benzodiazepine-3-carboxamide]: the inhibition at 0.1 µM is 30%.
Same read-out and setting: next, `COc1cc(C(=O)N2Cc3ccc(C(=O)N(C)CCCN(C)C)n3Cc3ccccc32)ccc1-c1ccccc1C` [Example 105, N-[3-(Dimethylamino)propyl]-10-[(2-methoxy-2′-methyl[1,1′-biphenyl]-4-yl)carbonyl]-N-methyl-10,11-dihydro-5H-pyrrolo[2,1-c][1,4]benzodiazepine-3-carboxamide]: 18%; `COc1ccccc1-c1ccc(C(=O)N2Cc3ccc(C(=O)N(C)CCCN(C)C)n3Cc3ccccc32)cc1C` [Example 100, N-[3-(Dimethylamino)propyl]-10-[(2′-methoxy-2-methyl[1,1′-biphenyl]-4-yl)carbonyl]-N-methyl-10,11-dihydro-5H-pyrrolo[2,1-c][1,4]benzodiazepine-3-carboxamide]: 26%; `Cc1ccccc1-c1ccc(C(=O)N2Cc3ccc(C(=O)N(C)CCCN(C)C)n3Cc3ccccc32)cc1C` [Example 101, N-[3-(Dimethylamino)propyl]-10-[(2,2′-dimethyl[1,1′-biphenyl]-4-yl)carbonyl]-N-methyl-10,11-dihydro-5H-pyrrolo[2,1-c][1,4]benzodiazepine-3-carboxamide]: 7%.
For `Cc1ccccc1-c1ccc(C(=O)N2Cc3ccc(C(=O)N(C)CCN(C)C)n3Cc3ccccc32)cc1` [Example 91, N-[2-(Dimethylamino)ethyl]-N-methyl-10-[(2′-methyl[1,1′-biphenyl]-4-yl)carbonyl]-10,11-dihydro-5H-pyrrolo[2,1-c][1,4]benzodiazepine-3-carboxamide], the inhibition at 0.1 µM is 17%.

Still in this assay, the particulars now being: CHO cell membranes, [3H]arginine vasopressin, values in parentheses.
Turning to `COc1cc(-c2ccccc2F)c(Cl)cc1C(=O)N1Cc2cccn2Cc2ccccc21` [Example 18B, 10-{[6-Chloro-3-methoxy-2′-fluoro-[1,1′-biphenyl]-4-yl]carbonyl}-10,11-dihydro-5H-pyrrolo[2,1-c][1,4]benzodiazepine], the IC50 came to 189 nM.
Consider `COc1cc(-c2ccccc2C)c(Cl)cc1C(=O)N1Cc2ccc(C(=O)N3CC[C@@H](N(C)C)C3)n2Cc2ccccc21` [Example 273, {10-[(6-Chloro-3-methoxy-2′-methyl[1,1′-biphenyl]-4-yl)carbonyl]-10,11-dihydro-5H-pyrrolo[2,1-c][1,4]benzodiazepin-3-yl}[(3R)-3-(dimethylamino)pyrrolidinyl]methanone], for which the IC50 worked out at 812 nM.
On to `Cc1cc(C(=O)N2Cc3ccc(C(=O)N4CCNCC4)n3Cc3ccccc32)ccc1-c1ccccc1C(F)(F)F` [Example 7, 10,11-Dihydro-10-[[2-methyl-2′-trifluoromethyl-[1,1′-biphenyl]-4-yl]carbonyl]-3-(1-piperazinylcarbonyl)-5H-pyrrolo[2,1-c][1,4]benzodiazepine hydrochloride salt], for which the IC50 is 2460 nM.
For `COc1ccccc1-c1ccc(C(=O)N2Cc3ccc(C(=O)N4CCN(CCN5CCOCC5)CC4)n3Cc3ccccc32)cc1C` [Example 206, {10-[(2′-Methoxy-2-methyl[1,1′-biphenyl]-4-yl)carbonyl]-10,11-dihydro-5H-pyrrolo[2,1-c][1,4]benzodiazepin-3-yl}{4-[2-(4-morpholinyl)ethyl]-1-piperazinyl}methanone], the concentration for half-maximal inhibition (IC50) came out at 190 nM.
`COc1cc(-c2ccccc2C)ccc1C(=O)N1Cc2ccc(C(=O)N(C)CCCN(C)C)n2Cc2ccccc21` [Example 11, N-Methyl-N-[3-(dimethylamino)propyl]-10-[(3-methoxy-2′-methyl[1,1′-biphenyl]-4-yl)carbonyl]-10,11-dihydro-5H-pyrrolo[2,1-c][1,4]benzodiazepine-3-carboxamide]: the IC50 worked out at 1350 nM.
With `Cc1cc(C(=O)N2Cc3ccc(C(=O)NC(=N)N)n3Cc3ccccc32)ccc1-c1ccccc1C(F)(F)F` [Example 8, N-[(10-{[2-methyl-2′-(trifluoromethyl)[1,1′-biphenyl]-4-yl]carbonyl}-10,11-dihydro-5H-pyrrolo[2,1-c][1,4]benzodiazepin-3-yl)carbonyl]guanidine], the 50% inhibitory concentration (IC50) amounted to 1470 nM.
`COc1ccccc1-c1ccc(C(=O)N2Cc3ccc(C(=O)N4CCN(CCN5CCOCC5)CC4)n3Cc3ccccc32)cc1` [Example 207, {10-[(2′-Methoxy[1,1′-biphenyl]-4-yl)carbonyl]-10,11-dihydro-5H-pyrrolo[2,1-c][1,4]benzodiazepin-3-yl}{4-[2-(4-morpholinyl)ethyl]-1-piperazinyl}methanone]: the IC50 was 601 nM.
Consider `C=CCN1CCN(C(=O)c2ccc3n2Cc2ccccc2N(C(=O)c2ccc(-c4ccccc4OC)cc2)C3)CC1` [Example 221, (4-Allyl-1-piperazinyl){10-[(2′-methoxy[1,1′-biphenyl]4-yl)carbonyl]-10,11-dihydro-5H -pyrrolo[2,1-c][1,4]benzodiazepin-3-yl}methanone], for which the half-inhibitory concentration (IC50) amounted to 833 nM.
`Cc1cc(C(=O)N2Cc3ccc(C(=O)N4CC[C@@H](N(C)C)C4)n3Cc3ccccc32)ccc1-c1ccccc1C(F)(F)F` [Example 271, [(3R)-3-(Dimethylamino)pyrrolidinyl](10-{[2-methyl-2′-(trifluoromethyl)[1,1′-biphenyl]-4-yl]carbonyl}-10,11-dihydro-5H-pyrrolo[2,1-c][1,4]benzodiazepin-3-yl)methanone]: the half-maximal inhibitory concentration (IC50) was 1920 nM.
Turning to `O=C(c1ccc(-c2cccc3ccccc23)nc1)N1Cc2cccn2Cc2ccccc21` [Example 28, [6-(Naphthalen-1-yl)-pyridin-3-yl]-[10,11-dihydro-5H-pyrrolo[2,1-c][1,4]benzodiazepin-10-yl]methanone], the IC50 came out at 58.8 nM.
The same measure, in the same setting: next, `COc1ccccc1-c1ccc(C(=O)N2Cc3ccc(C(=O)N4CC[C@@H](N(C)C)C4)n3Cc3ccccc32)cc1C` [Example 272, [(3R)-3-(Dimethylamino)pyrrolidinyl]{10-[(2′-methoxy-2-methyl[1,1′-biphenyl]-4-yl)carbonyl]-10,11-dihydro-5H-pyrrolo[2,1-c][1,4]benzodiazepin-3-yl}methanone]: 1300 nM.
The same measure, in the same setting: next, `COc1cc(C(=O)N2Cc3ccc(C(=O)N4CCC[C@H]4CN4CCCC4)n3Cc3ccccc32)ccc1-c1ccccc1C(F)(F)F` [Example 20, {[10-(2-Methoxy)-2′-trifluoromethyl-[1,1′-biphenyl]-4-yl]carbonyl}-[(2S)-[(2-pyrrolidin-1-yl)methyl]pyrrolidin-1-yl]-10,11-dihydro-5H-pyrrolo[2,1-c][1,4]benzodiazepin-3-yl-methanone]: 4360 nM; `COc1cc(-c2ccccc2C(F)(F)F)c(OC)cc1C(=O)N1Cc2cccn2Cc2ccccc21` [Example 32, 10-{[3,6-Dimethoxy-2′-trifluoromethyl-[1,1′-biphenyl]-4-yl]carbonyl}-10,11-dihydro-5H-pyrrolo[2,1-c][1,4]benzodiazepine]: 605 nM; `Cc1cc(C(=O)N2Cc3ccc(C(=O)N(C)CCN(C)C)n3Cc3ccccc32)ccc1-c1ccccc1C(F)(F)F` [Example 85, N-[2-(Dimethylamino)ethyl]-N-methyl-10-{[2-methyl-2′-(trifluoromethyl)[1,1′-biphenyl]-4-yl]carbonyl}-10,11-dihydro-5H-pyrrolo[2,1-c][1,4]benzodiazepine-3-carboxamide]: 3130 nM.
Consider `Cc1ccc(-c2ccc(C(=O)N3Cc4cccn4Cc4ccccc43)cc2)c2ccccc12` [Example 25, [4-(4-Methyl-naphthalen-1-yl)phenyl][10,11-dihydro-5H-pyrrolo[2,1-c][1,4]benzodiazepin-10-yl]methanone], for which the half-maximal inhibitory concentration (IC50) stood at 11.3 nM.
